Assay results: PubChem BioAssay (NCI)
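The concentration for 50% growth inhibition is given as GI50. TGI denotes the concentration required for complete inhibition of growth.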

Tests used:
Assay in all cases: NCI-60 cell line screen, 384-well format
A498 renal = system: A498 renal
A549 NSCLC = system: A549 NSCLC
ACHN renal = system: ACHN renal
BT-549 breast = system: BT-549 breast
CAKI-1 renal = system: CAKI-1 renal
COLO 205 colon = system: COLO 205 colon
DU-145 prostate = system: DU-145 prostate
EKVX NSCLC = system: EKVX NSCLC
HCC-2998 colon = system: HCC-2998 colon
HCT-116 colon = system: HCT-116 colon
HCT-15 colon = system: HCT-15 colon
HL-60(TB) leukemia = system: HL-60(TB) leukemia
HOP-62 NSCLC = system: HOP-62 NSCLC
HOP-92 NSCLC = system: HOP-92 NSCLC
HS 578T breast = system: HS 578T breast
HT29 colon = system: HT29 colon
IGROV1 ovarian = system: IGROV1 ovarian
KM12 colon = system: KM12 colon
LOX IMVI melanoma = system: LOX IMVI melanoma
M14 melanoma = system: M14 melanoma
MALME-3M melanoma = system: MALME-3M melanoma
MCF7 breast = system: MCF7 breast
MDA-MB-231 breast = system: MDA-MB-231 breast
MDA-MB-435 melanoma = system: MDA-MB-435 melanoma
MDA-MB-468 breast = system: MDA-MB-468 breast
MOLT-4 leukemia = system: MOLT-4 leukemia
NCI-H23 lung = system: NCI-H23 lung
NCI-H322M lung = system: NCI-H322M lung
NCI-H460 NSCLC = system: NCI-H460 NSCLC
NCI-H522 lung = system: NCI-H522 lung
NCI/ADR-RES ovarian = system: NCI/ADR-RES ovarian
OVCAR-3 ovarian = system: OVCAR-3 ovarian
OVCAR-4 ovarian = system: OVCAR-4 ovarian
OVCAR-5 ovarian = system: OVCAR-5 ovarian
OVCAR-8 ovarian = system: OVCAR-8 ovarian
PC-3 prostate = system: PC-3 prostate
RPMI-8226 leukemia = system: RPMI-8226 leukemia
RXF 393 renal = system: RXF 393 renal
SF-268 CNS = system: SF-268 CNS
SF-295 CNS = system: SF-295 CNS
SF-539 CNS = system: SF-539 CNS
SK-MEL-28 melanoma = system: SK-MEL-28 melanoma
SK-MEL-5 melanoma = system: SK-MEL-5 melanoma
SK-OV-3 ovarian = system: SK-OV-3 ovarian
SN12C renal = system: SN12C renal
SNB-19 CNS = system: SNB-19 CNS
SNB-75 CNS = system: SNB-75 CNS
SR leukemia = system: SR leukemia
T-47D breast = system: T-47D breast
TK-10 renal = system: TK-10 renal
U251 glioblastoma = system: U251 glioblastoma
UACC-257 melanoma = system: UACC-257 melanoma
UACC-62 melanoma = system: UACC-62 melanoma

Nc1ccc(-c2ccc3ncc4ccc(=O)n(-c5cccc(C(F)(F)F)c5)c4c3c2)cn1
GI50 (A498 renal): < 10 nM | TGI (A498 renal): 13.2 nM | GI50 (A549 NSCLC): < 10 nM | TGI (A549 NSCLC): 1070 nM | GI50 (ACHN renal): < 10 nM | TGI (ACHN renal): 168 nM | GI50 (BT-549 breast): < 10 nM | TGI (BT-549 breast): 35.8 nM | GI50 (CAKI-1 renal): 10.5 nM | TGI (CAKI-1 renal): 1080 nM | GI50 (COLO 205 colon): 20.5 nM | TGI (COLO 205 colon): 103 nM | GI50 (DU-145 prostate): < 10 nM | TGI (DU-145 prostate): 378 nM | GI50 (EKVX NSCLC): < 10 nM | TGI (EKVX NSCLC): 62.9 nM | GI50 (HCC-2998 colon): 10.5 nM | TGI (HCC-2998 colon): 318 nM | GI50 (HCT-116 colon): 25.5 nM | TGI (HCT-116 colon): 242 nM | GI50 (HCT-15 colon): < 10 nM | TGI (HCT-15 colon): 1080 nM | GI50 (HL-60(TB) leukemia): 17.9 nM | TGI (HL-60(TB) leukemia): 128 nM | GI50 (HOP-62 NSCLC): < 10 nM | TGI (HOP-62 NSCLC): 46.3 nM | GI50 (HOP-92 NSCLC): 26.1 nM | TGI (HOP-92 NSCLC): 1000 nM | GI50 (HS 578T breast): < 10 nM | TGI (HS 578T breast): 50.8 nM | GI50 (HT29 colon): 45.6 nM | TGI (HT29 colon): 1320 nM | GI50 (IGROV1 ovarian): < 10 nM | TGI (IGROV1 ovarian): < 10 nM | GI50 (KM12 colon): < 10 nM | TGI (KM12 colon): 2470 nM | GI50 (LOX IMVI melanoma): < 10 nM | TGI (LOX IMVI melanoma): 33.4 nM | GI50 (M14 melanoma): < 10 nM | TGI (M14 melanoma): 136 nM | GI50 (MALME-3M melanoma): < 10 nM | TGI (MALME-3M melanoma): 151 nM | GI50 (MCF7 breast): < 10 nM | TGI (MCF7 breast): 2740 nM | GI50 (MDA-MB-231 breast): < 10 nM | TGI (MDA-MB-231 breast): 12500 nM | GI50 (MDA-MB-435 melanoma): 10.2 nM | TGI (MDA-MB-435 melanoma): 91.4 nM | GI50 (MDA-MB-468 breast): < 10 nM | TGI (MDA-MB-468 breast): 171 nM | GI50 (MOLT-4 leukemia): < 10 nM | TGI (MOLT-4 leukemia): 28.5 nM | GI50 (NCI-H23 lung): 23.2 nM | TGI (NCI-H23 lung): 400 nM | GI50 (NCI-H322M lung): < 10 nM | TGI (NCI-H322M lung): 46.9 nM | GI50 (NCI-H460 NSCLC): < 10 nM | TGI (NCI-H460 NSCLC): 71 nM | GI50 (NCI-H522 lung): < 10 nM | TGI (NCI-H522 lung): 168 nM | GI50 (NCI/ADR-RES ovarian): 26.1 nM | TGI (NCI/ADR-RES ovarian): 1070 nM | GI50 (OVCAR-3 ovarian): < 10 nM | TGI (OVCAR-3 ovarian): 293 nM | GI50 (OVCAR-4 ovarian): < 10 nM | TGI (OVCAR-4 ovarian): 38.9 nM | GI50 (OVCAR-5 ovarian): 13.4 nM | TGI (OVCAR-5 ovarian): 67.3 nM | GI50 (OVCAR-8 ovarian): 11.4 nM | TGI (OVCAR-8 ovarian): 1370 nM | GI50 (PC-3 prostate): < 10 nM | TGI (PC-3 prostate): 122 nM | GI50 (RPMI-8226 leukemia): < 10 nM | TGI (RPMI-8226 leukemia): < 10 nM | GI50 (RXF 393 renal): 17.5 nM | TGI (RXF 393 renal): 1400 nM | GI50 (SF-268 CNS): 34.5 nM | TGI (SF-268 CNS): 1140 nM | GI50 (SF-295 CNS): < 10 nM | TGI (SF-295 CNS): 196 nM | GI50 (SF-539 CNS): < 10 nM | TGI (SF-539 CNS): 389 nM | GI50 (SK-MEL-28 melanoma): 26 nM | TGI (SK-MEL-28 melanoma): 14200 nM | GI50 (SK-MEL-5 melanoma): < 10 nM | TGI (SK-MEL-5 melanoma): 24.5 nM | GI50 (SK-OV-3 ovarian): < 10 nM | TGI (SK-OV-3 ovarian): 1020 nM | GI50 (SN12C renal): < 10 nM | TGI (SN12C renal): 86 nM | GI50 (SNB-19 CNS): 52.3 nM | TGI (SNB-19 CNS): 2380 nM | GI50 (SNB-75 CNS): < 10 nM | TGI (SNB-75 CNS): 1150 nM | GI50 (SR leukemia): < 10 nM | TGI (SR leukemia): < 10 nM | GI50 (T-47D breast): < 10 nM | TGI (T-47D breast): 1310 nM | GI50 (TK-10 renal): < 10 nM | TGI (TK-10 renal): 40.2 nM | GI50 (U251 glioblastoma): 30.1 nM | TGI (U251 glioblastoma): 1190 nM | GI50 (UACC-257 melanoma): 25.5 nM | TGI (UACC-257 melanoma): 199 nM | GI50 (UACC-62 melanoma): < 10 nM | TGI (UACC-62 melanoma): 565 nM
